Measured values reported in ChEMBL document CHEMBL1909046, “DrugMatrix in vitro pharmacology data”.

Assays:
Substance-P receptor = Substance-P receptor (Homo sapiens, UniProt P25103); type: cell membranes, CHO, Membrane; settings: cho; also: in other assays of this panel Not Active means under 50% inhibition at 10 µM
[1] = DRUGMATRIX: Serotonin (5-Hydroxytryptamine) 5-HT3 radioligand binding (ligand: [3H] GR-65630); type: cell membranes, Membrane; settings: hek293; Not Active = under 50% inhibition at 10 µM
Endothelin-1 receptor = target: T1, Endothelin-1 receptor (Homo sapiens, UniProt P25101); type: cell membranes, CHO-K1, Membrane; settings: cho-k1; also: in other assays of this panel Not Active means under 50% inhibition at 10 µM
T1 sequence (P25101 whole entry): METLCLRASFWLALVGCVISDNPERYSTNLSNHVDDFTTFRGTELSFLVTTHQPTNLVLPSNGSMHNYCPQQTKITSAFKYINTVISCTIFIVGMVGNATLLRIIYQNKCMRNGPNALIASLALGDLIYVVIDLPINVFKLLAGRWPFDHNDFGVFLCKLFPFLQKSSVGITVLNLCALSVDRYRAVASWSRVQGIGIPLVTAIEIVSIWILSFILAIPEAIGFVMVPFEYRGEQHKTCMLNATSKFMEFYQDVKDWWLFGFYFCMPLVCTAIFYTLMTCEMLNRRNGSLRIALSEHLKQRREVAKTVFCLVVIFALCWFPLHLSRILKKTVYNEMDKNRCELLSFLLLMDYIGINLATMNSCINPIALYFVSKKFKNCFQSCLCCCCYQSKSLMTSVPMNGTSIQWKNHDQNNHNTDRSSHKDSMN

Acetylcholinesterase = Acetylcholinesterase (Homo sapiens, UniProt P22303); assay: DRUGMATRIX: Acetylcholinesterase enzyme inhibition (substrate: acetylthiocholine); type: cell-based, HEK293; settings: Not Active = under 50% inhibition at 10 µM
Acetylcholinesterase, sequence (P22303 whole entry): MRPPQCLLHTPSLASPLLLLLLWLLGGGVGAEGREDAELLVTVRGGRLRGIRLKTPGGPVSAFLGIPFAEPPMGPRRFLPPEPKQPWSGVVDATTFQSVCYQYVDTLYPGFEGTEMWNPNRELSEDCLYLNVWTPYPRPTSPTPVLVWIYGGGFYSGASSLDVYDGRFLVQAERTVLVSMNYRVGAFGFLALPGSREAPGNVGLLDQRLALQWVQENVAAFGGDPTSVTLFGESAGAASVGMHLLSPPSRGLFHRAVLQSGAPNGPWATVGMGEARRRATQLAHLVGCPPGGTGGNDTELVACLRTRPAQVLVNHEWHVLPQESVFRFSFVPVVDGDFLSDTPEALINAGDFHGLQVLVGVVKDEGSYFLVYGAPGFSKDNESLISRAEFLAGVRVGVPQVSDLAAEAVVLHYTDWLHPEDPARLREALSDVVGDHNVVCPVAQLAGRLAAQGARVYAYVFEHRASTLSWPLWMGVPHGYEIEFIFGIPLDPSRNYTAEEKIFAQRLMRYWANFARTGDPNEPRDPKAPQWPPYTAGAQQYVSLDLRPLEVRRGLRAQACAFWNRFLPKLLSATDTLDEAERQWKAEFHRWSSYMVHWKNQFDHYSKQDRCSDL

[2] = target: T2, Muscarinic acetylcholine receptor M2 (Homo sapiens, UniProt P08172); type: cell membranes, CHO-K1, Membrane; settings: cho-k1; also: in other assays of this panel Not Active means under 50% inhibition at 10 µM
T2 sequence (P08172 whole entry): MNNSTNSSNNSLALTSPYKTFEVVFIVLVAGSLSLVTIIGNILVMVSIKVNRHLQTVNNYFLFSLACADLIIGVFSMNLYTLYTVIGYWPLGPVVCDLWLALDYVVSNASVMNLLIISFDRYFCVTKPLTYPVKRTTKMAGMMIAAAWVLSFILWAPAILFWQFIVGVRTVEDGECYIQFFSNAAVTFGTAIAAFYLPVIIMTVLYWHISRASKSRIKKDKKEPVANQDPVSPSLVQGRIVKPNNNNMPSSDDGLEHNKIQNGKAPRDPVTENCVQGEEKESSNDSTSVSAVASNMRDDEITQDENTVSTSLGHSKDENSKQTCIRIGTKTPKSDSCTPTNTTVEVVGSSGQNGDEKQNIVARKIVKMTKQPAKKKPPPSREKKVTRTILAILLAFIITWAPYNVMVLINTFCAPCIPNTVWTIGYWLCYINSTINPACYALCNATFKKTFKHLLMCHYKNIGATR

[3] = DRUGMATRIX: GABAA, Flunitrazepam, Central radioligand binding (ligand: [3H] Flunitrazepam); type: cell membranes, Rattus norvegicus, Wistar, Brain, Membrane; settings: Not Active = under 50% inhibition at 10 µM
[4] = DRUGMATRIX: beta-Lactamase enzyme inhibition (substrate: Nitrocefin); set-up: species or system Bacillus cereus; settings: Not Active = under 50% inhibition at 10 µM

Substance-P receptor, sequence (P25103 whole entry): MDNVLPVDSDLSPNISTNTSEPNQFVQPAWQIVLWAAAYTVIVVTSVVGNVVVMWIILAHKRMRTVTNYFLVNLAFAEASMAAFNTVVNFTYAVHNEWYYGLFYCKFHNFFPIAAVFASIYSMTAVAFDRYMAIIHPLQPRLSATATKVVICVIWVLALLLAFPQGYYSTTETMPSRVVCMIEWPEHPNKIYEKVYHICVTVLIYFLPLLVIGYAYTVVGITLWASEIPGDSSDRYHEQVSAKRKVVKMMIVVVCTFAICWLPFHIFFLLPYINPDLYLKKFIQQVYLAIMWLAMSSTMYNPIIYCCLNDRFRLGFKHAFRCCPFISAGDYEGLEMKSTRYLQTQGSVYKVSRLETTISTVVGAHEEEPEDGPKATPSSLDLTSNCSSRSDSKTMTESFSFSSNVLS

Row | Structure (SMILES) | IC50 (Substance-P receptor) | IC50 [1] | Ki [1] | IC50 (Endothelin-1 receptor) | IC50 (Acetylcholinesterase; hek293) | IC50 [2] | IC50 [3] | Ki [3] | IC50 [4] | Ki [4] | IC50 (Acetylcholinesterase; read-out: IC50)
1 | CC(C)CN(C[C@@H](O)[C@H](Cc1ccccc1)NC(=O)O[C@H]1CCOC1)S(=O)(=O)c1ccc(N)cc1 | Not Active | Not Active | Not Active | Not Active | Not Active | Not Active | Not Active | Not Active | Not Active | Not Active | 
2 | c1ccc(Nc2ccc(Nc3ccccc3)cc2)cc1 | Not Active | Not Active | Not Active | Not Active | Not Active | Not Active | Not Active | Not Active | Not Active | Not Active | 
3 | COc1cc2c3cc1Oc1cc(ccc1O)C[C@@H]1c4c(cc(OC)c(O)c4Oc4ccc(cc4)C[C@@H]3N(C)CC2)CC[N+]1(C)C.[Cl-] | Not Active | Not Active | Not Active | Not Active | Not Active | Not Active | Not Active | Not Active | Not Active | Not Active | 
4 | NC(=O)N1c2ccccc2CCc2ccccc21 | Not Active | Not Active | Not Active | Not Active | Not Active | Not Active | Not Active | Not Active | Not Active | Not Active | 
5 | O=C1CC[C@@H](N2C(=O)c3ccccc3C2=O)C(=O)N1 | Not Active | Not Active | Not Active | Not Active | Not Active | Not Active | Not Active | Not Active | Not Active | Not Active | 
6 | Cc1onc(O)c1CC(N)C(=O)O (racemic) [(R,S)-AMPA] | Not Active | Not Active | Not Active | Not Active | Not Active | Not Active | Not Active | Not Active | Not Active | Not Active | 
7 | Cc1ccc2cc3c(ccc4ccccc43)c3c2c1CC3 [3-METHYLCHOLANTHRENE] | Not Active | Not Active | Not Active | Not Active |  | Not Active | Not Active | Not Active | Not Active | Not Active | 22.7 µM
8 | CC[C@@]1(O)C[C@H](O[C@H]2C[C@H](N(C)C)[C@H](O[C@H]3C[C@H](O)[C@H](O[C@H]4CCC(=O)[C@H](C)O4)[C@H](C)O3)[C@H](C)O2)c2c(cc3c(c2O)C(=O)c2c(O)cccc2C3=O)[C@H]1C(=O)OC [ACLARUBICIN] | Not Active | Not Active | Not Active | Not Active | Not Active | Not Active | Not Active | Not Active | Not Active | Not Active | 
9 | Nc1nc2c(ncn2COCCO)c(=O)[nH]1 [ACYCLOVIR] | Not Active | Not Active | Not Active | Not Active | Not Active | Not Active | Not Active | Not Active | Not Active | Not Active | 
10 | Cc1c(C)c2c(c(C)c1O)CC[C@@](C)(CCC[C@H](C)CCC[C@H](C)CCCC(C)C)O2 [ALPHA-TOCOPHEROL] | Not Active | Not Active | Not Active | Not Active | Not Active | Not Active | Not Active | Not Active | Not Active | Not Active | 
11 | CN(C)c1nc(N(C)C)nc(N(C)C)n1 [ALTRETAMINE] | Not Active | Not Active | Not Active | Not Active | Not Active | Not Active | Not Active | Not Active | Not Active | Not Active | 
12 | Nc1c(Br)cc(Br)cc1CN[C@H]1CC[C@H](O)CC1 [AMBROXOL] | Not Active | Not Active | Not Active | Not Active | Not Active | Not Active | Not Active | Not Active | Not Active | Not Active | 
